Measurements taken from US20170223976A1, “MODIFIED MILK POWDER CONTAINING 1,5-ANHYDRO-D-GLUCITOL” (NIHON STARCH CO., LTD., priority 2015, published 2017).

What was measured:
PC12 cells = experiment: Fluorescence determination of number of living cells and amount of neurite outgrowth (neurite outgrowth staining kit); assay type: cell-based
Description: A test was carried out at five concentrations (1.6, 8, 40, 200 and 1,000 μg/mL) of 1,5-AG. Stated more specifically, a 1,5-AG aqueous solution having a concentration of 100 mg/mL was diluted with water to prepare 100 times-concentrated solutions having concentrations of 0.16, 0.8, 4, 20 and 100 mg/mL. These 100 times-concentrated solutions were each added to a test medium in a ratio of 1/100 to achieve final concentrations of 1.6, 8, 40, 200 and 1,000 μg/mL and sterilized with a filter to be used in the test. As a negative control, water was added to a medium in a ratio of 1/100 and sterilized with a filter to be used in the test. As a positive control, a test medium containing a 100 ng/mL nerve growth factor (NGF) was used.
A growth medium was used to adjust the cells to a concentration of 2.0×10^3 cells/100 μL/well, and the cells were scattered in a collagen-coated 96-well plate to be cultured in a CO2 incubator (5% CO2, 37° C., moistening) for 24 hours. After culture, the medium was replaced by a sample-containing test medium (100 μL), and the cells were cultured in a CO2 incubator for 96 hours. After the end of culture, an image of the cells in each well was taken with a phase difference microscope and used for the measurement of nuetrite outgrowth rate, and nuclei and cytoplasms were fluorescent dyed by using a neurite outgrowth staining kit to measure the number of living cells and the amount of neurite outgrowth. These procedures were carried out five times each.
After the end of culture, the number of living cells and the amount of neurite outgrowth were determined by using a neurite outgrowth staining kit. Stated more specifically, after the medium was removed, 100 μL of a staining solution (prepared by diluting Cell Viability Indicator and Cell Membrane Stain attached to the kit with calcium magnesium-containing PBS 1,000 times) was added to each well to incubate the cells at 37° C. for 20 minutes. After incubation, the staining solution was removed, 100 μL of a background suppression solution (prepared by diluting the background suppression dye attached to the kit with calcium magnesium-containing PBS 100 times) was added to each well so as to measure fluorescence intensity with a micro plate reader (measurement of the number of living cells: excitation wavelength of 495 nm, fluorescence wavelength of 515 nm, measurement of the amount of neurite outgrowth: excitation wavelength of 555 nm, fluorescent wavelength of 565 nm).

PSG-1 gene = PSG-1 gene expression in placental trophoblastic cells, real-time RT-PCR; assay type: cell-based, human; conditions: for expression level of PSG-1 gene relative to non-added section: after 72 hours
Description: The influence upon these two genes (PSG-1 and CSH-1) of 1,5-AG was analyzed by a real-time RT-PCR method using placental trophoblastic cells. As a preliminary study, the expression level of PSG-1 was analyzed at three concentrations (1 μg/mL or less, 40 μg/mL and 160 μg/mL of 1,5-AG) and for three sampling times (3, 24 and 72 hours). A test was conducted by the following method.
Human placental villous trophoblastic cells (ScienCell Research Laboratories)
The human placental villous trophoblastic cells were initiated in a T-75 flask by using a trophoblast medium (to be simply referred to as “medium” hereinafter) to be cultured in a CO2 incubator (5% CO2, 37° C., moistening). Medium exchange was carried out every 2 days, the cells were collected when 80% confluence was reached, and cells having a passage number of 2 were used in this test. Stated more specifically, after the cells were washed with D-PBS (−), the cells were separated by using 0.25% trypsin-EDTA, and a medium was added to neutralize trypsin. Then, the supernatant was removed by centrifugation (180 g, 5 minutes), a new medium was added to stir the cells, the number of the cells was counted by using a corpuscle calculating board, and a medium was used to achieve a target concentration (4.0×10^3 cells/100 μL).
The sample was added to mediums to achieve 1,5-AG final concentrations of 40 μg/mL and 160 μg/mL. When the final concentration was not more than 1 μg/mL, 1,5-AG was not added. Stated more specifically, a 1,5-AG aqueous solution having a concentration of 40 mg/mL was added to a test medium in a ratio of 1/1000 or 1/250 to achieve a final concentration of 40 μg/mL or 160 μg/mL, and the 1,5-AG solution was sterilized with a filter to be used in the test. […]
The PCR reaction was carried out under the conditions of 95° C.·30 sec−(95° C.·10 sec−60° C.·30 sec)×45 cycles−95° C.·15 sec−55° C.·15 sec−95° C.·15 sec, and the dissociation curve of the PCR product was obtained after the end of the PCR reaction. The relative expression level was calculated by the ? […]

[1] = system: type 2 diabetes model mice; conditions: mouse, in vivo; cited from earlier work
insulinoma cell lines = conditions: cited from earlier work
type 2 diabetes model = conditions: in vivo; cited from earlier work

With `OC[C@H]1OC[C@H](O)[C@@H](O)[C@@H]1O` [1,5-AG, 1,5-anhydro-D-glucitol] the “amount of neurite outgrowth as compared with the non-added section” value (PC12 cells; 8 μg/mL section) was 113.4%, the “amount of neurite outgrowth as compared with the non-added section” value (PC12 cells; 40 μg/mL section) was 113.3% and the “number of living cells” value (PC12 cells; all test sections versus negative control, 96 hours) was “about the same as that of a negative control”. The “expression level of PSG-1 gene relative to non-added section” value (PSG-1 gene; 40 μg/mL 1,5-AG) was 1.54 times, the “expression level of PSG-1 gene relative to non-added section” value (PSG-1 gene; 160 μg/mL 1,5-AG) was 1.62 times and the “expression level of PSG-1 gene over treatment time” value (PSG-1 gene; 1,5-AG added sections, 3, 24 and 72 hours) was “rose in proportion to the sample treatment time”. The anti-inflammatory effect [1] was “anti-inflammatory effect”, the secretion of insulin (insulinoma cell lines) was “promotes the secretion of insulin” and the anti-diabetic effect (type 2 diabetes model) was “anti-diabetic effect”.
